Paper PMC3335879, “Selective Inhibitors of Protozoan Protein N-myristoyltransferases as Starting Points for Tropical Disease Medicinal Chemistry Programs” (PLoS Neglected Tropical Diseases, 2012)
Read-outs that look alike come from different tables or passages of the source.

How the values were obtained:
P. falciparum NMT = target: T1, P. falciparum NMT (Plasmodium falciparum, UniProt Q8ILW6); experiment: biochemical; conditions: for Pfal LE: ligand efficiency calculated from Pfal NMT IC50; for Pfal/Ldon Sel: selectivity for Pfal NMT over Ldon NMT derived from IC50 values
T1 construct: made in house
T1 sequence (Q8ILW6 1-410): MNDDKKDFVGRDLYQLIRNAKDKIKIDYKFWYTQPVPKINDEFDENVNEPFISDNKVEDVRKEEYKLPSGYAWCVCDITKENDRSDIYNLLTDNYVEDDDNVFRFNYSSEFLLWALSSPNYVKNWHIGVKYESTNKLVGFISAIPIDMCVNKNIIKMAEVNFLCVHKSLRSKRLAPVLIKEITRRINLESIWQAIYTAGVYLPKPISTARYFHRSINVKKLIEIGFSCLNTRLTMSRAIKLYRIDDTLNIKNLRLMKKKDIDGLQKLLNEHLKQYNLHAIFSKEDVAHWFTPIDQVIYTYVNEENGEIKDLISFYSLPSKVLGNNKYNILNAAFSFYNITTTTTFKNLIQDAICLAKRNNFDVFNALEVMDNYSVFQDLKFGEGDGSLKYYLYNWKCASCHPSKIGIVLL
Description: Recombinant P. falciparum (Swiss-Prot Q81LW6) and L. donovani NMTs (EMBL accession number FN555136) were produced at the University of York, using established protocols. An assay format based on scintillation proximity technology to monitor enzyme activity was used as previously described, [30]. […]
(§1) The reaction was initiated by adding 10 µL of the substrate mixture to each well containing the pre-incubated enzyme/compound mixture, and allowed to proceed at RT for 80 min. The reaction was quenched by the addition 20 µl of stop solution to each well. Stop solution consisted of 0.75 M MgCl2 (Sigma), 0.1 M phosphoric acid (Sigma) and 1 mg/ml of streptavidin-coated polystyrene SPA beads (Perkin-Elmer). Plates were sealed using topseals (Perkin-Elmer) and left overnight to allow the bead solution to settle. Radioactive counts were measured with an integration time of 300 sec per plate using the Leadseeker Generation 4 plate reader (GE Healthcare). Each plate included a positive control of 1 µM final assay concentration of DDD85646 [22] and 1% DMSO as a negative control. […] The data were analysed using Pfizer SIGHTS software and visualised using Spotfire software (TIBCO).

L. donovani NMT = L. donovani NMT (Leishmania donovani, UniProt D0AB09); experiment: biochemical; conditions: for Ldon LE: ligand efficiency calculated from Ldon NMT IC50
Description: Recombinant P. falciparum (Swiss-Prot Q81LW6) and L. donovani NMTs (EMBL accession number FN555136) were produced at the University of York, using established protocols. An assay format based on scintillation proximity technology to monitor enzyme activity was used as previously described, [30].
The Pfizer Global Diverse Representative Set consisting of 150,000 compounds was screened at 20 µM final assay concentration. Assay plates were prepared by dispensing 0.1 µL of compound dissolved in DMSO using the Vario system (Cybio) into white 384-well plates (Greiner Bio-One).
as §1

HsNMT2 = target: T2, HsNMT2 (Homo sapiens, UniProt O60551); experiment: Human NMT2 scintillation proximity dose-response assay; assay type: biochemical; conditions: Table 2; single determination; read-out: Hs2 IC50
T2 construct: made in house
T2 sequence (O60551 1-498): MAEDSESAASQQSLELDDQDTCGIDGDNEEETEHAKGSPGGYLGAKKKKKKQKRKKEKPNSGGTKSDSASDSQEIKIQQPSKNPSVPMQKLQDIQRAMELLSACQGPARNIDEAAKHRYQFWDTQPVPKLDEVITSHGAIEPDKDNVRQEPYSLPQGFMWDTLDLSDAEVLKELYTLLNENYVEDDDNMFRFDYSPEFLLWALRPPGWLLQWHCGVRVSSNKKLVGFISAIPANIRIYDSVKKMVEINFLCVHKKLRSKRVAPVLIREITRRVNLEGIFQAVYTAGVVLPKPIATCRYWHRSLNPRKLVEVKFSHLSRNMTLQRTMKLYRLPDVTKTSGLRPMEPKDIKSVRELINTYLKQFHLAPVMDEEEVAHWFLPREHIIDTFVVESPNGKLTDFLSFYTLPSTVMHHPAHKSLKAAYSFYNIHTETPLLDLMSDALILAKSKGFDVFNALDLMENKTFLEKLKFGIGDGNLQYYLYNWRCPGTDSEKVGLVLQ

HsNMT1 = target: T3, HsNMT1 (Homo sapiens, UniProt P30419); experiment: Human NMT1 scintillation proximity dose-response assay; assay type: biochemical; conditions: Table 2; single determination; read-out: Hs1 IC50
T3 construct: made in house
T3 sequence (P30419 1-496): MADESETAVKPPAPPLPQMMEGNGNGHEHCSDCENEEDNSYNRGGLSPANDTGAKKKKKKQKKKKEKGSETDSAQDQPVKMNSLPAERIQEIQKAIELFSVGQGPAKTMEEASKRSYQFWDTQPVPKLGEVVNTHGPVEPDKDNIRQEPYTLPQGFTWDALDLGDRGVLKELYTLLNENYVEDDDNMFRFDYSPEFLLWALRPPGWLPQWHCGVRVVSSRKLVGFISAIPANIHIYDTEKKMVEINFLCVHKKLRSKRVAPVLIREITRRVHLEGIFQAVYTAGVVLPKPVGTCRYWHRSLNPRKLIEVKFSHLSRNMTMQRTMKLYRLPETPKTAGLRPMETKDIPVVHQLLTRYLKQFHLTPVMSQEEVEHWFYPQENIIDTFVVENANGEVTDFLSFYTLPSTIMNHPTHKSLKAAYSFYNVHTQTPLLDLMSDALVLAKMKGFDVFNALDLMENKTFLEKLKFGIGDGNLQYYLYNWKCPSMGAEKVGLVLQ

T brucei NMT = target: T4, T brucei NMT (Trypanosoma brucei brucei, UniProt Q388H8); experiment: T. brucei NMT scintillation proximity dose-response assay; assay type: biochemical
T4 construct: made in house
T4 sequence (Q388H8 1-446): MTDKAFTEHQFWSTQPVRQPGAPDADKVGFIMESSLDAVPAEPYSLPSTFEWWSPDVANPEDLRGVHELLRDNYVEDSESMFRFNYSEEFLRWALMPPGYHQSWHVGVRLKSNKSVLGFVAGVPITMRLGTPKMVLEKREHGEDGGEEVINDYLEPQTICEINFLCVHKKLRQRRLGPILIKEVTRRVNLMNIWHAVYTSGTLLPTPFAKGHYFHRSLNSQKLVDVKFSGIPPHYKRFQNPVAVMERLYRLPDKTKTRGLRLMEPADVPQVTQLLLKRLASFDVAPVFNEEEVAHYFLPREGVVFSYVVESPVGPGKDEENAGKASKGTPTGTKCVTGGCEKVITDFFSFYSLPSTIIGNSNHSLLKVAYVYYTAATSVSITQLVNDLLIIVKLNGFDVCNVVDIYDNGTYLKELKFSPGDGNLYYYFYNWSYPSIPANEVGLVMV

[1] = Table 1, mean of 3 separate experiments, top concentration 80 µM, read-out: Pfal IC50
[2] = Table 2, mean of 3 determinations, read-out: Pfal IC50
[3] = Table 1, mean of 3 separate experiments, top concentration 80 µM, read-out: Ldon IC50
[4] = Table 2, mean of 3 determinations, read-out: Ldon IC50
[5] = Table 2, single determination, read-out: Tb IC50
[6] = Ldon IC50, Table 1, mean of 3 separate experiments, top concentration 80 µM
[7] = Ldon IC50, Table 2, mean of 3 determinations

L. donovani NMT, sequence (D0AB09 entry or part of it): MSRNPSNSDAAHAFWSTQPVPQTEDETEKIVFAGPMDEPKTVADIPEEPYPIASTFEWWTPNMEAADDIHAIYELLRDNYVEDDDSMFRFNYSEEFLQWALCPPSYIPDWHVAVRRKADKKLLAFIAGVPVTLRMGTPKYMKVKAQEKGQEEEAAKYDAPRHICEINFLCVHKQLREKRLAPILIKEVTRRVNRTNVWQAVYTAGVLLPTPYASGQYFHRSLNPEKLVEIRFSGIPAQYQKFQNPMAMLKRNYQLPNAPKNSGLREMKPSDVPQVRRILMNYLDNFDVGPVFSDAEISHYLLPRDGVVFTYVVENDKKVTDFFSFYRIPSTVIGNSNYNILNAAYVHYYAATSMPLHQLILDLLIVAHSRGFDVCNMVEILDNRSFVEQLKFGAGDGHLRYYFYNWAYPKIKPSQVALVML

Compound	IC50 (P. falciparum NMT; [1]) [µM]	IC50 (P. falciparum NMT; [2]) [µM]	IC50 (L. donovani NMT; [3]) [µM]	IC50 (L. donovani NMT; [4]) [µM]	Ldon LE (L. donovani NMT)	IC50 (HsNMT2) [µM]	IC50 (HsNMT1) [µM]	IC50 (T brucei NMT; [5]) [µM]	Pfal LE (P. falciparum NMT)	Pfal/Ldon Sel (P. falciparum NMT)	IC50 (L. donovani NMT; [6]) [µM]	IC50 (L. donovani NMT; [7]) [µM]	IC50 (P. falciparum NMT) [µM]	IC50 (T brucei NMT) [µM]
c1cncc(CCNCc2cccc(-c3cccc(CN4CCc5ncsc5C4)c3)c2)c1 [PF-00075634]	> 80	> 80	0.158	0.16	0.29	26.7	36.1	> 80	–	–	–	–	–	–
Cn1c(CN2CCC(c3cc(F)cc(F)c3)CC2)nc2cc(Cl)ccc21 [PF-03665853]	0.91	0.91	–	–	–	0.56	0.51	35.4	0.32	>88	> 80	> 80	–	–
Cc1cc2nc(N(C)C3CCN(C)CC3)nc(N(C)CCC#N)c2s1 [PF-00349412]	–	–	–	–	0.34	11.5	9	–	–	–	0.482	0.48	39.6	56.2

Second part, led by results:

IC50 (P. falciparum NMT; [1]) [µM]	IC50 (P. falciparum NMT; [2]) [µM]	IC50 (L. donovani NMT; [3]) [µM]	IC50 (L. donovani NMT; [4]) [µM]	Ldon LE (L. donovani NMT)	IC50 (HsNMT2) [µM]	IC50 (HsNMT1) [µM]	IC50 (T brucei NMT; [5]) [µM]	Pfal LE (P. falciparum NMT)	Pfal/Ldon Sel (P. falciparum NMT)	Compound	IC50 (L. donovani NMT; [6]) [µM]	IC50 (L. donovani NMT; [7]) [µM]	IC50 (P. falciparum NMT) [µM]	IC50 (T brucei NMT) [µM]
71.9	71.9	0.093	0.093	0.35	14.7	5.2	1.5	–	–	NC(CC(=O)N1CC(CO)C(c2ccc(Cl)cc2)C1)Cc1ccc(Cl)cc1 (centres unmarked) [PF-03402623]	–	–	–	–
0.482	0.48	72	72	–	76	70	> 80	0.31	150	Cc1cnc(CNC(=O)C2CN(c3nc(NCCN(C)C)ncc3Cl)C2)cn1 [PF-03531814]	–	–	–	–
1.72	1.72	38.7	38.7	–	1.59	0.57	> 80	0.34	22.5	CNCC(=O)N1CC[C@@H](NC(=O)c2ccccc2C(F)(F)F)C1 [CP-854190]	–	–	–	–
